Assay [1] has as its target T1, DNA repair protein RAD51 homolog 1 (Homo sapiens) (UniProt Q06609).
T1 sequence (whole entry): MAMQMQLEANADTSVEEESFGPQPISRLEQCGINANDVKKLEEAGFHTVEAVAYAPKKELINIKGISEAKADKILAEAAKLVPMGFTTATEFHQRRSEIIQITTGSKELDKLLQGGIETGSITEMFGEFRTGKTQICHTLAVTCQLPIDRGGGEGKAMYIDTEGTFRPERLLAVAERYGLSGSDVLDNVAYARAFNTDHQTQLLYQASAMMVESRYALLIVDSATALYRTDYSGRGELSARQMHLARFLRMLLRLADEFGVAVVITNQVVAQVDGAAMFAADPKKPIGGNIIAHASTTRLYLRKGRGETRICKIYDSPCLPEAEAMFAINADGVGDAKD
Description: Inhibition of RAD51 (unknown origin) assessed as inhibition of DNA pairing by measuring D-loop formation between [32P]-ssDNA and homologous supercoiled pUC19 DNA at 30 uM incubated for 15 mins by gel electrophoresis method relative to control.

Assay [2] concerns the target T2, DNA repair protein RAD52 homolog (Homo sapiens) (UniProt P43351).
T2 sequence (whole entry): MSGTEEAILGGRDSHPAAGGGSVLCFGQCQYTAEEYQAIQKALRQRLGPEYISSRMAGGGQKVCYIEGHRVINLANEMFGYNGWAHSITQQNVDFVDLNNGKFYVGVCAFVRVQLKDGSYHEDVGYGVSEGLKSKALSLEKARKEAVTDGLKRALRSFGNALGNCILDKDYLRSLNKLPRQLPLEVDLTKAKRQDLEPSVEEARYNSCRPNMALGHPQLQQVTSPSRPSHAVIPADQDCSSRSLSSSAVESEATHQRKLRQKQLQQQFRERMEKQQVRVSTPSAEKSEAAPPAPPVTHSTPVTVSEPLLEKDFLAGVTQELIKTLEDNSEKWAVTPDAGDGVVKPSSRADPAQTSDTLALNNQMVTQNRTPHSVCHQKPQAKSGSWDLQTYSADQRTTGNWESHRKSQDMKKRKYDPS
Description: Inhibition of RAD52 (unknown origin) assessed as inhibition of DNA pairing using [32P]-ssDNA by measuring D-loop formation incubated for 15 mins by gel electrophoresis method.

In assay [3] the target is T1, DNA repair protein RAD51 homolog 1 (Homo sapiens). Description: Inhibition of RAD51 (unknown origin) assessed as inhibition of DNA pairing by measuring D-loop formation between [32P]-ssDNA and homologous supercoiled pUC19 DNA at 10 times RAD52 IC50 incubated for 15 mins by gel electrophoresis method relative to control.
The next assay has as its system CAPAN-1. Description: Growth inhibition of BRCA2-deficient human Capan1 cells at 2.5 to 10 uM following media refreshment every 3 days and measured on day 10 by CellTiter-Glo assay. In kind it is functional, cell-based. A general note: ATP-based viability assays read luminescence as a measure of living cells.
The species entered for a further assay is Homo sapiens. Description: Growth inhibition of BRCA1-deficient human UWB1.289 cells at 2.5 to 10 uM following media refreshment every 3 days and measured on day 10 by CellTiter-Glo assay. The format is functional.
A further assay deals with Salmon testes DNA. Description: Binding affinity to salmon sperm DNA incubated for 20 mins by acridine orange displacement based fluorescence polarization assay. In kind it is nucleic-acid assay. The following applies: Salmonidae.
The target in assay [4] is T2, DNA repair protein RAD52 homolog (Homo sapiens). Description: Inhibition of RAD52 (unknown origin) expressed in BCR-ABL1-positive and BRCA1-deficient mouse 32Dcl3 cells expressing GFP-RAD52 assessed as reduction in cisplatin-induced RAD52 foci formation at 2.5 uM by AlexaFluor-594 staining based inverted fluorescence microscopy relative to control. In kind it is cell-based.

The target is the same in assay [5]. Description: Inhibition of RAD52 (unknown origin) expressed in BCR-ABL1-positive and BRCA1-deficient mouse 32Dcl3 cells expressing GFP-RAD52 assessed as cisplatin-induced RAD52 foci formation by measuring fraction of cell without foci at 2.5 uM by AlexaFluor-594 staining based inverted fluorescence microscopy (reference value: 48.4 +/- 6.2%). Further details: scale not given: the % may be the effect or the level left.

Active and inactive are the calls of the source. The calls are words filed in the database; no cut-off is given here.

As a reminder, the inhibition is the relative decrease from the control value, in per cent. Take `CCN(CC)CCCN(Cc1cc2cc3c(cc2nc1O)OCO3)C(S)=NCCCN(C)C`: the inhibition was more than 90% in assay [1], “Dose-dependent effect” in assay [2] and 102% in assay [3].

For `CN1CCN(CCCNC(=O)c2cc3c(-c4ccc(Cl)cc4)nn(C)c3s2)CC1`, the inhibition in assay [1] is more than 90%; in assay [2] it was “Dose-dependent effect”; in assay [3], 38.4%.

As for `Cc1c(C(=O)Nc2ccc(S(=O)(=O)N(C)C3CCN(C)CC3)cc2)oc2c(Cl)cccc12`, the values for the inhibition in assay [1], in assay [2] and in assay [3] were more than 90%, “Dose-dependent effect” and 97.5%, respectively.

For `CCCCN(CC)CCNC(=O)c1cc2c(-c3ccc(Cl)cc3)nn(C)c2s1`, the “growth inhibition (GI)” value in the assay with CAPAN-1 and in the assay filed under Homo sapiens was “Active” throughout. The inhibition in assay [1] is more than 90%; in assay [2], “Dose-dependent effect”; in assay [3], 58.6%.

In the case of `COc1ccc(OC)c(Nc2nc(NCCCO)c3ccccc3n2)c1`, the “growth inhibition (GI)” value with CAPAN-1 and in the assay listed under Homo sapiens was “Active” each time. Moreover, the inhibition in assay [1] is more than 90%; in assay [2], “Dose-dependent effect”; in assay [3], 75.6%. Also, in the assay on Salmon testes DNA, the result was inactive. Further, the fold change (FC) in assay [4] lay within 2 to 2.5. Besides, in assay [5], the Activity was found to be 71.9%.

As to `COc1ccccc1Nc1nc(NCCCO)c2ccccc2n1`, the “growth inhibition (GI)” value in the assay with CAPAN-1 and in the assay filed under Homo sapiens was “Active” in each case. Also, the inhibition in assay [1] is more than 90%; in assay [2] it was “Dose-dependent effect”; in assay [3], 89.7%.

In the case of `CCCCN(CC)CCCN=C(S)Nc1ccc2nc(N3CCN(C)CC3)cc(C)c2c1`, the inhibition in assay [1] was more than 90%; in assay [2], “Dose-dependent effect”; in assay [3] it was 108%.

Turning to `Cn1nc(-c2ccc(Cl)cc2)c2cc(C(=O)NCCCN3CCCCCC3)sc21`, the “growth inhibition (GI)” value with CAPAN-1 and in the assay listed under Homo sapiens was “Active” throughout. Besides, the inhibition in assay [1] was more than 90%; in assay [2], “Dose-dependent effect”; in assay [3] it was 48.6%.

As for `CCN1CCN(CCCNC(=S)Nc2ccc3nc(N(C)CCN)cc(C)c3c2)CC1`, the inhibition is more than 90% in assay [1], “Dose-dependent effect” in assay [2] and 111% in assay [3].

For `COc1ccc(-c2nc(C(=O)NCCCN3CCOCC3)cc3c2[nH]c2ccccc23)cc1OC`, the inhibition was more than 90% in assay [1], “Dose-dependent effect” in assay [2] and 93.7% in assay [3].

In the case of `Cc1ccc(-c2nc(C(=O)NCCCN3CCOCC3)cc3c2[nH]c2ccccc23)cc1`, the figures for the inhibition in assay [1], in assay [2] and in assay [3] were more than 90%, “Dose-dependent effect” and 73.6%, respectively.

In the case of `Cc1ccc(C(=O)c2oc3ccc(Cl)cc3c2NC(=O)CN2CCN(C)CC2)cc1`, the inhibition in assay [1] is more than 90%; in assay [2], “Dose-dependent effect”; in assay [3], 92.5%.

Take `CCCN(CCC)CCCNC(=S)Nc1ccc2nc(N3CCN(C)CC3)cc(C)c2c1`: the values for the inhibition in assay [1], in assay [2] and in assay [3] were more than 90%, “Dose-dependent effect” and 111%, respectively.

As for `COc1ccc(OC)c(Nc2nc(NCCO)c3ccccc3n2)c1`, the “growth inhibition (GI)” value in the assay with CAPAN-1 and in the assay listed under Homo sapiens was “Active” throughout. Moreover, the inhibition in assay [1] is more than 90%; in assay [2], “Dose-dependent effect”; in assay [3], 75.1%.

As for `Cn1nc(-c2ccc(Cl)cc2)c2cc(C(=O)NCCCN3CCCC3)sc21`, the results for the inhibition in assay [1], in assay [2] and in assay [3] were more than 90%, “Dose-dependent effect” and 35.3%, respectively.

Regarding `Cc1cc(N2CCN(C)CC2)nc2ccc(NC(S)=NCCCN3CCN(C)CC3)cc12`, the inhibition in assay [1] is more than 90%; in assay [2] it was “Dose-dependent effect”; in assay [3], 112%.
